Data published in patent US11278530B2, “Polycyclic amides as muscarinic M1 receptor positive allosteric modulators” (SUVEN LIFE SCIENCES LIMITED, priority 2017, dated 2022).

Legend:
[1] = target: T1, recombinant human Muscarinic M1 receptor (Homo sapiens, UniProt P11229); assay: Allosteric potency EC50 for Muscarinic M1 receptor, CHO pCRE-Luc reporter cell-based assay with EC20 of acetylcholine; conditions: CHO cells, human M1, luciferase reporter, in presence of EC20 of acetylcholine, 4 h
T1 sequence (P11229 1-460): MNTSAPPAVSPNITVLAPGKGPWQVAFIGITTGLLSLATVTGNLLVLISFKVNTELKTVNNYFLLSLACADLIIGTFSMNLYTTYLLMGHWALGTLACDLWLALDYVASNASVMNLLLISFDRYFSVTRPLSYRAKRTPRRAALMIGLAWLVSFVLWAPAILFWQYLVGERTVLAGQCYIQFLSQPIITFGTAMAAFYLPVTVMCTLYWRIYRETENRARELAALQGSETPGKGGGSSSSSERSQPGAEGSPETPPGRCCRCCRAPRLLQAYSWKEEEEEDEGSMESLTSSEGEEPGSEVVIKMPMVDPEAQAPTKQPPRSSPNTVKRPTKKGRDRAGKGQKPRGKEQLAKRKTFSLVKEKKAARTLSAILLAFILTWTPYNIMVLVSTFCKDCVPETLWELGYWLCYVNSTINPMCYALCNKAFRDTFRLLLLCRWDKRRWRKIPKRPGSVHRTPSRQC
Method: Determination of allosteric potency EC50 values for Muscarinic M1 receptor:
A stable CHO cell line expressing recombinant human Muscarinic M1 receptor and pCRE-Luc reporter system was used for cell-based assay. The assay offers a non-radioactive based approach to determine binding of a compound to GPCRs. In this specific assay, the level of intracellular cyclic AMP which is modulated by activation or inhibition of the receptor is measured. The recombinant cells harbor luciferase reporter gene under the control of cAMP response element.
The above cells were grown in 96 well clear bottom white plates in Hams F12 medium containing 10% fetal bovine serum (FBS). Prior to the addition of compounds or standard agonist, cells were serum starved overnight. Increasing concentrations of test compounds were added along with EC20 of acetylcholine in OptiMEM medium to the cells. The incubation was continued at 37° C. in CO2 incubator for 4 h. Medium was removed and cells were washed with phosphate buffered saline. The cells were lysed and luciferase activity was measured in a Luminometer. Luminescence counts in each concentrations of test item were normalized to the acetylcholine induced maximum response and the data was analyzed using Graphpad software. EC50 values of the compounds were defined as the concentration required in stimulating the luciferase activity by 50% in presence of EC20 of acetylcholine.

[2] = Rodent pharmacokinetic study; format: in vivo, Male Wistar rats; conditions: male, Wistar, rat, plasma; for bioavailability: oral 3 mg/kg vs i.v. 1 mg/kg, read-out: F (bioavailability)
Method: Rodent Pharmacokinetic Study
Male Wistar rats (260±50 grams) were used as experimental animals. Animals were housed individually in polypropylene cage. Two days prior to study, male Wistar rats were anesthetized with isoflurane for surgical placement of jugular vein catheter. Rats were randomly divided for oral (3 mg/kg) and intravenous (i.v) (1 mg/kg) dosing (n=3/group) and fasted overnight before oral dosing (p.o.). However, rats allocated to intravenous (i.v.) dosing food and water was provided ad libitum.
At pre-determined point, blood was collected through jugular vein and replenished with an equivalent volume of normal saline. Collected blood was transferred into a labelled eppendorf tube containing 10 μL of heparin as an anticoagulant. Typically blood samples were collected at following time points: 0.08, 0.25, 0.5, 1, 2, 4, 6, 8, and 24 h post dose. Blood was centrifuged at 4000 rpm for 10 minutes. Plasma was separated and stored frozen at −80° C. until analysis. The concentrations of the test compounds were quantified in plasma by qualified LC-MS/MS method using suitable extraction technique. The test compounds were quantified in the calibration range around 1-1000 ng/mL in plasma. Study samples were analyzed using calibration samples in the batch and quality control samples spread across the batch.
Pharmacokinetic parameters Cmax, Tmax (h), AUCt, T1/2, clearance and bioavailability (F) were calculated by non-compartmental model using standard non-compartmental model by using Phoenix WinNonlin 6.0.2 or 6.0.3 version Software package.

[3] = Rodent brain penetration study; format: in vivo, Male Wistar rats; conditions: male, Wistar, brain and plasma, po; rat, 3 mg/kg, p.o. @ 1.0 hr, brain-plasma ratio; read-out: Single dose Rat Brain Penetration (Cb/Cp)
Method: Rodent Brain Penetration Study
Male Wistar rats (260±40 grams) were used as experimental animals. Three animals were housed in each cage. Animals were given water and food ad libitum throughout the experiment and maintained on a 12 h light/dark cycle.
Brain penetration was determined in discrete manner in rats. One day prior to dosing day, male Wistar rats were acclimatized and randomly grouped according to their weight. At each time point (0.5, 1 and 2 h) n=3 animals were used.
The test compounds were suitably preformulated and administered orally at (free base equivalent) 3 mg/kg. Blood samples were removed via cardiac puncture by using isoflurane anesthesia. The animals were sacrificed to collect brain tissue. Plasma was separated and brain samples were homogenized and stored frozen at −20° C. until analysis. The concentrations of the test compounds in plasma and brain were determined using LC-MS/MS method.
The test compounds were quantified in plasma and brain homogenate by qualified LC-MS/MS method using suitable extraction technique. The test compounds were quantified in the calibration range of 1-500 ng/mL in plasma and brain homogenate. Study samples were analyzed using calibration samples in the batch and quality control samples spread across the batch.

[4] = tested on: Male Wistar rats; assay: Object recognition task model; format: in vivo; conditions: rat, p.o.; for Exploration time mean ± S.E.M, Familiar object / Exploration time mean ± S.E.M, Novel object: choice trial 24 h after T1
Method: Object Recognition Task Model
The cognition enhancing properties of compounds of this invention were estimated by using this model.
Male Wistar rats (8-10 weeks old) were used as experimental animals. Four animals were housed in each cage. Animals were kept on 20% food deprivation from a day prior to experimentation. Water was provided ad libitum throughout the experiment. Animals were maintained on a 12 h light/dark cycle in temperature and humidity controlled room. The experiment was carried out in circular arena made up of acrylic. Rats were habituated to individual arenas for up to 45 min in the absence of any objects on day 1.
One group of 12 rats received vehicle and another set of animals received compound of the formula (I), before the familiar (T1) and choice (T2) trials. During the familiarization phase, (T1), the rats were placed individually in the arena for 3 minutes, in which two identical objects (a1 and a2) were positioned 10 cm from the wall. 24 h after T1, trial for long-term memory test was performed. The same rats were placed in the same arena as they were placed in T1 trial. During the choice phase (T2) rats were allowed to explore the arena for 3 minutes in presence of a copy of familiar object (a3) and one novel object (b). During the T1 and T2 trial, explorations of each object (defined as sniffing, licking, chewing or having moving vibrissae whilst directing the nose towards the object at a distance of less than 1 cm) were recorded using stopwatch.
T1 is the total time spent exploring the familiar objects (a1+a2).
T2 is the total time spent exploring the familiar object and novel object (a3+b).
The object recognition test was performed as described by Ennaceur, A., Delacour, J., 1988, A new one-trial test for neurobiological studies of memory in rats—Behavioural data, Behav. Brain Res., 31, 47-59.

[5] = tested on: hippocampal θ rhythm, anesthetized male Wistar rats; assay: Theta modulation in dorsal hippocampus of anesthetized rats in combination with donepezil; format: in vivo

Row | EC50 [1] | AUC(0-t) ([2]; iv, i.v. 1 mg/kg) | half-life ([2]; iv, i.v. 1 mg/kg) | clearance ([2]; iv, i.v. 1 mg/kg) | bioavailability [2] | AUC(0-t) ([2]; oral 3 mg/kg) | Cmax ([2]; oral 3 mg/kg) | Tmax ([2]; oral 3 mg/kg) | half-life ([2]; oral 3 mg/kg) | Kp at 1 h [3] | Structure (SMILES) | further results
1 | 555 nM | 346 ± 25 ng·h/mL | 0.8 ± 0.1 h | 48 ± 3.4 mL/min/kg | 13 ± 2.7% | 137 ± 28 ng·h/mL | 70 ± 23 ng/mL | 0.5 h | 1.9 ± 0.1 h | 1.27 ± 0.07 | Cc1c(Cc2ccccc2)cc(C(=O)N[C@H]2CCCC[C@@H]2O)c2ncccc12 [Example 14, N-(cis-1S,2S-2-Hydroxycyclohexyl)-6-benzyl-5-methylquinoline-8-carboxamide] | Inference ([4]; 3 mg/kg): Active; Exploration time mean ± S.E.M, Familiar object ([4]; 3 mg/kg): 8.35 ± 1.98 s; Exploration time mean ± S.E.M, Novel object ([4]; 3 mg/kg): 15.54 ± 3.58 s
2 | 1680 nM | 367 ± 39 ng·h/mL | 1.6 ± 0.3 h | 45 ± 5 mL/min/kg | 14 ± 5% | 158 ± 58 ng·h/mL | 48 ± 23 ng/mL | 0.5 to 2 h | 2 ± 0.2 h | 1.74 ± 0.03 | Cc1c(Cc2cccc(F)c2F)cc(C(=O)N[C@H]2CCCC[C@@H]2O)c2ncccc12 [Example 2, N-(cis-1S,2S-2-Hydroxycyclohexyl)-6-(2,3-difluorobenzyl)-5-methylquinoline-8-carboxamide] | 
3 | 197 nM | 6860 ± 1810 ng·h/mL | 3.1 ± 0.3 h | 2.5 ± 0.6 mL/min/kg | 40 ± 11% | 8190 ± 2180 ng·h/mL | 1540 ± 397 ng/mL | 2 h | 3.7 ± 0.3 h | 0.78 ± 0.22 | Cc1c(Cc2ccc(-c3cnn(C)c3)cc2)cc(C(=O)N[C@H]2CCCC[C@@H]2O)c2ncccc12 [Example 15, N-(cis-1S,2S-2-Hydroxycyclohexyl)-6-[4-(1-methyl-1H-pyrazol-4-yl)-benzyl]-5-methylquinoline-8-carboxamide] | Inference ([4]; 1 mg/kg): Active; Exploration time mean ± S.E.M, Familiar object ([4]; 1 mg/kg): 12.93 ± 1.83 s; Exploration time mean ± S.E.M, Novel object ([4]; 1 mg/kg): 20.42 ± 3.42 s

Row | Structure (SMILES) | EC50 [1] | AUC(0-t) ([2]; iv, i.v. 1 mg/kg) | half-life ([2]; iv, i.v. 1 mg/kg) | clearance ([2]; iv, i.v. 1 mg/kg) | bioavailability [2] | AUC(0-t) ([2]; oral 3 mg/kg) | Cmax ([2]; oral 3 mg/kg) | Tmax ([2]; oral 3 mg/kg) | half-life ([2]; oral 3 mg/kg) | Kp at 1 h [3] | further results
4 | Cc1c(Cc2ccc(-c3cnn(C)c3)cc2F)cc(C(=O)N[C@H]2CCCC[C@@H]2O)c2ncccc12 [Example 11, N-(cis-1S,2S-2-Hydroxycyclohexyl)-6-[2-fluoro-4-(1-methyl-1H-pyrazol-4-yl)-benzyl]-5-methylquinoline-8-carboxamide] | 100 nM | 12800 ± 2150 ng·h/mL | 3.9 ± 0.2 h | 1.3 ± 0.2 mL/min/kg | 105 ± 25% | 40300 ± 9420 ng·h/mL | 9690 ± 1420 ng/mL | 1 to 2 h | 4.8 ± 1.6 h | 0.14 ± 0.01 | Inference ([4]; 0.3 mg/kg): Active; Exploration time mean ± S.E.M, Familiar object ([4]; 0.3 mg/kg): 12.20 ± 1.89 s; Exploration time mean ± S.E.M, Novel object ([4]; 0.3 mg/kg): 17.33 ± 1.39 s; Mean area under the curve values (AUC) of θ power change compared with donepezil alone ([5]; Example 11 (1 mg/kg, i.v.) and donepezil (0.3 mg/kg, i.v.) vs donepezil alone): significantly higher compared to donepezil alone; effect on θ power of combination treatment compared with donepezil alone ([5]; Example 11 (1 mg/kg, i.v.) in combination with donepezil (0.3 mg/kg, i.v.) vs donepezil alone): significantly higher than the donepezil alone; θ power levels ([5]; Example 11 (1 mg/kg, i.v.) in combination with donepezil (0.3 mg/kg, i.v.), anesthetized rat): significant increase
